Key:
[1] = tested on: iPS cells; test: Cloning efficiency of iPS cells; assay type: cell-based, human; details: about 500 cells per well, in the presence of HA100, DF5S-based media versus TeSR or CM
Protocol: To determine how DF5S affects cloning efficiency, two iPS cell lines were grown in DF5S and plated at cloning density (approximately 500 cells per 12-well plate well) in the presence of HA100. […] To identify such factor, individual TeSR™ components were added individually to DF5S and tested for effect on cloning efficiency.

[2] = tested on: H1 cells; test: Cloning efficiency of H1 cells; assay type: cell-based, human
Protocol: FIG. 2 A-F illustrate optimization of human ES cell and iPS cell culture conditions with DF5S. […] Cell survival was examined at 24 hours and 124 hours. […] DF5S trFe indicates DF5S media to which holotransferrin was added. FIG. 2E illustrates the cloning efficiency of H1 cells cultured in various media in the presence of HA100 (10 μM, 24 hours), blebbistatin (10 μM, 4 hours), or Y27632 (10 μM, 24 hours), compared to cloning efficiency in the absence of these factors (control). Asterisks indicate p<0.05. FIG. 2F illustrates cloning efficiency of H1 cells in conditioned medium (CM), CM with ROCK inhibitor (HA100), TeSR with ROCK inhibitor, and E8 with ROCK inhibitor in normoxic (dark gray bars) or hypoxic (light gray bars) conditions. Error bars indicate the standard error of the mean; asterisks indicate p<0.05.
To determine cloning efficiency at various oxygen and CO2 concentrations, 500 cells were seeded into each well. Even at low oxygen, cloning efficiency was too low (<2%) to determine effects of various conditions on cloning. HA100, a ROCK inhibitor known to increase cloning efficiency, was used to increase cloning efficiency for testing oxygen and CO2 concentrations. Conditioned medium (CM), known to be the best medium for cloning, was used as control.
The cells maintained a normal karyotype after more than 25 passages.

[3] = tested on: foreskin cells; test: Foreskin cell growth in DF5SFe-based media; design: species or system human
Protocol: To determine growth factors that can help primary foreskin cell growth, individual growth factors contained in FBS were tested. The FGF family of growth factors has several members, one or more of which is commonly used for fibroblast culture. DF5SFe contains 100 ng/ml zebrafish recombinant FGF2. Each FGF family member was tested for its ability to support foreskin cell growth. Foreskin cells were aliquoted into the well of culture plates and incubated for 24 hours in DF5SFe minus FGF. Individual FGF types were added at 100 ng/ml for 96 h.

[4] = tested on: H1 ES cells; test: Short term growth / proliferation after passaging; assay type: cell-based, human; details: for cell proliferation after passaging: factor added to DMEM/F12, NaHCO3, insulin and FGF, L-ascorbic acid 64 mg/L
Protocol: (§1) Five-hundred micro liter of various test media was loaded into each well of 12-well plates prior to the addition of cells. Adherent pluripotent cells were dissociated with TrypLE (Invitrogen) for 5 minutes or until fully detached from the culture plates. TrypLE was neutralized by adding an equal volume of media to the culture. The cells were counted, washed, and resuspended in fresh media at a concentration of 300,000 to 1,000,000 cells/ml. Approximately 100 μl of this cell solution was added into each well of the 12-well plates and the cells were incubated at 37° C. with 5% O2 and 10% CO2. Cells were again dissociated at various time points using 0.4 ml TrypLE, which was subsequently neutralized with equal volumes of 10% FBS in DMEM. The cells were counted by flow cytometry. 5000 count bright beads were added to each sample as internal control (approximately 200 beads were counted for each sample). All experiments were performed in triplicates.
TeSR medium contains six growth factors, in addition to those present in the basal medium, fibroblast growth factor (FGF), transforming growth factor beta (TGF-β), γ-aminobutyric acid (GABA), pipecolic acid, lithium chloride (LiCl), and insulin (Table 1). A basic nutrient medium (NM) was created containing all TeSR™ components with the exception of these six growth factors. About 2×10^5 H1 ES cells were dissociated and plated on Matrigel. The survival index was determined after 24 h. […] Thus, NM supplemented with FGF and Insulin supports human ES cell culture. Twelve different basal nutrient media supplemented as described above were able to support cell survival and growth (FIG. 1E).
NM contains 11 nutritional components, i.e., DMEM/F12, trace elements B, trace elements C, L-ascorbic acid, thiamine, selenium, L-glutamine, BSA, BME, sodium bicarbonate (NaHCO3), and transferrin (Table 1). […]
H1 cells grew faster in the DF5S medium compared to cells grown in TeSR™ (FIGS. 1C and 2A). […] To increase assay sensitivity only 5,000 cells were seeded in each well and analyzed for survival (24 h) and proliferation (124 h). […]

[5] = tested on: H1 ES cells; test: ES cell proliferation after insulin replacement; assay type: cell-based, human; details: insulin replaced after 24 hours with 30 ng/ml; feeder-free culture
Protocol: To determine whether IGF1 and IGF2 are sufficient to support ES cell proliferation in the absence of insulin, individualized H1 ES cells were plated onto Matrigel plates in TeSR (with insulin) for the first 24 hours. Then insulin was either removed or replaced with IGF1 (30 ng/ml) and IGF2 (30 ng/ml). Cell numbers were measured at specific time points, and the fold change in cell numbers was normalized to the cell counts at the time when insulin was first replaced.

[6] = tested on: H1 ES cells; test: ES cell survival in mTeSR without insulin; assay type: cell-based, human; details: for cell survival: 30 ng/ml added at 0 hour; for cell survival, dosage response: low concentration (e.g., 3 ng/ml), 24 hours
Protocol: Pluripotent cell survival assays were carried out as described in Example 1. Media tested included mTeSR and mTeSR […]. IGF1R is known to be activated by insulin, IGF1 and IGF2 (Nguyen et al., Reproduction 134:41-49 (2007)). Accordingly, the inventors designed and carried out experiments to test how IGF1 or IGF2 could affect ES cell survival. Individualized H1 ES cells were plated in mTeSR™ with or without insulin (Sigma). IGF1 (30 ng/ml) and IGF2 (30 ng/ml) were added to media at 0 hour. […] Dosage response assays were conducted to determine useful concentrations of IGF1, IGF2, and Long-IGF-1 (Sigma) in pluripotent cell maintenance medium. Individualized H1 ES cells were plated in mTeSR without insulin, IGF1, IGF2 and Long-IGF1 were added at 0 hour, and cell survival was measured after 24 hours.

[7] = tested on: H1 ES cells; test: Pluripotent cell survival assay (24 h survival index after dissociation); assay type: cell-based, human; details: basic nutrient medium NM with or without additions, H1 ES cells on Matrigel
Protocol: as §1, with “triplicates. TeSR medium contains six growth factors, in addition to those present in the basal medium, fibroblast growth factor (FGF), transforming growth factor beta (TGF-β), γ-aminobutyric acid (GABA), pipecolic acid, lithium chloride (LiCl), and insulin (Table 1). A basic nutrient medium (NM) was created containing all TeSR™ components with the exception of these six growth factors. […] The survival index was determined after 24 h. […]” for “triplicates.”

[8] = tested on: human fibroblasts; test: Reprogramming efficiency of human fibroblasts in E8-based medium; assay type: cell-based; details: E8 versus MEF feeder cells or TeSR; butyrate 100 μM with or without TGF-β
[9] = tested on: foreskin cells; test: Reprogramming of foreskin fibroblasts to iPS cells; assay type: cell-based, human
Protocol: Available reprogramming protocols include incubation of the cells in FBS in the first several days after viral transduction or electroporation, prior to switching the cells to UM100 (U.S. Pat. No. 7,439,064, incorporated herein as if set forth in its entirety) or CM. The simplified media described in previous Examples were tested for their ability to support reprogramming.
To determine if DF5S-based media can be used for viral-free iPS cell derivation, foreskin cells were reprogrammed using a viral-free episomal vector, as described in Yu et al., Science 324:797 (2009), incorporated herein by reference as if set forth in its entirety, at hypoxic conditions (O5C10).
Plasmid combinations #6 and #19 were used for the reprogramming. In order to enhance the plasmid entry into the nucleus, ENBA mRNA was electroporated along with plasmid DNA. Around one million cells were transferred onto two 6-well plates in DF5SFeC for 5 days. Medium was then switched to DF5SFe for another 18-25 days. Cells of some of the wells were passaged for a second time using a 1:6 ratio at different time points.

[10] = tested on: H1 cells; test: Extended passage of cells in simplified media; assay type: cell-based, human; details: DF5, or nutritional factor added individually to DF5
[11] = in E8, HA100 10 μM 24 h, blebbistatin 10 μM 4 h, Y27632 10 μM 24 h, versus control

Which results are given for holo-transferrin?
cloning efficiency [1]: cloning efficiency comparable to that using TeSR™; cloning efficiency ([2]; H1 cells in DF5S medium, transferrin added): noticeable improvement of cloning efficiency; cloning efficiency [2, 11]: further increased

With C[C@]12CCC(=O)C=C1CC[C@@H]1[C@@H]2[C@@H](O)C[C@@]2(C)[C@H]1CC[C@]2(O)C(=O)CO [Hydrocortisone, reference compound] as the molecule, how does the foreskin cell growth ([3]; added to DF5SFe to replace FBS) read?
The foreskin cell growth was “improved cell growth significantly”.

What about the cloning efficiency [1] of the same molecule?
The cloning efficiency was “improved iPS cell cloning efficiency”.

With O=C(O)[C@@H]1C[C@@H](O)CN1 [Hydroxyproline] as the molecule, how does the “cell proliferation after passaging” value [4] read?
Its value is “could partially substitute for L-ascorbic acid”.

For IGF2: ligand of the IGF1R receptor, which cell proliferation [5] is on record?
The cell proliferation was “able to support cell proliferation”.

What about the cell survival [6] of the same molecule?
The cell survival was “rescued cell survival in the absence of insulin”.

What about the “cell survival, dosage response” value [6] of the same molecule?
Its value is “can support hES cell survival in the absence of insulin”.

How did the foreskin cell growth ([3]; individual FGF added at 100 ng/ml for 96 h to DF5SFe minus FGF) turn out when FGF1: FGF family member growth factor was run?
The foreskin cell growth was “supported foreskin cell growth most effectively”.

How did the cell growth ([4]; added to NM, insulin 20 ug/ml, FGF2 100 ng/ml, 96 h, compared with TeSR) turn out when insulin was run?
The cell growth was “did not support cell growth”.

What about the “cell survival after dissociation (survival index)” value [7] of the same molecule?
The value was “cell survival similar to that observed with TeSR™”.

O=C1O[C@H]([C@@H](O)CO)C(O)=C1O [L-ascorbic acid] was tested. Which “cell proliferation after passaging” value [4] did it give?
The value was “necessary for cell proliferation after passaging”.

Which cloning efficiency [2, 11] does the source give for O=S(=O)(c1cccc2cnccc12)N1CCNCC1 [HA100] here?
Its cloning efficiency is “increased cloning efficiency”.

What about the cloning efficiency ([2]; in conditioned medium (CM), at both O5C10 and O15C5, 500 cells per well) of the same molecule?
The cloning efficiency was “significantly improved cloning efficiency”.

How did the reprogramming efficiency [8] turn out when CCCC(=O)[O-].[Na+] [Butyrate, sodium butyrate] was run?
Its reprogramming efficiency is “further enhanced reprogramming efficiency”.

And the “number of colonies during reprogramming” value ([9]; foreskin fibroblasts)?
The value was “did not increase the number of colonies”.

And the “ratio of true iPS cell to non-iPS cell colonies” value ([9]; foreskin fibroblasts)?
The value was “improved the ratio of true iPS cell to non-iPS cell colonies significantly”.

What about the reprogramming efficiency ([9]; reagent added to reprogramming media) of the same molecule?
The reprogramming efficiency was “improved reprogramming efficiency”.

Which cloning efficiency [2, 11] does the source give for Cc1ccc2c(c1)C(=O)C1(O)CCN(c3ccccc3)C1=N2 (stereo not shown) [blebbistatin] here?
The cloning efficiency was “increased cloning efficiency”.

Which results are given for IGF1: ligand of the IGF1R receptor?
cell proliferation [5]: able to support cell proliferation; cell survival [6]: rescued cell survival in the absence of insulin; cell survival, dosage response [6]: can support hES cell survival in the absence of insulin

Which cloning efficiency [2, 11] does the source give for C[C@@H](N)[C@H]1CC[C@H](C(=O)Nc2ccncc2)CC1 [Y27632] here?
Its cloning efficiency is “increased cloning efficiency”.

[Se] [selenium] was tested. Which “cell growth / proliferation through multiple passages” value [10] did it give?
Its value is “sufficient to support cell proliferation through multiple passages”.

From US9279107B2, “Simplified basic media for human pluripotent cell culture” (WISCONSIN ALUMNI RESEARCH FOUNDATION, priority 2010, dated 2016)
